Measured values published in patent publication US20220241306A1, “CHITIN ANALOGS FOR THE TREATMENT OF KIDNEY DISEASES” (AyuVis Research, Inc., priority 2021, published 2022).

How the values were obtained:
TNF-α = test: RT-PCR of kidney tissue, glycerol-treated mice: TNF-α; type: in vivo, mouse; conditions: whole kidney tissue, RT-PCR vs GAPDH
Text: (§1) Mouse model for acute kidney injury. Eight to ten weeks old male C57 BL/6J mice (n=5-7 per group, male and female) were utilized to induce acute kidney injury. Animals were randomized before treatment. Littermates or co-housed animals were chosen for this study. The mice were kept without water but unlimited access to chow for −24 hrs. In first study, nine ml per kg body weight of 1:1 diluted glycerol was intramuscularly injected followed by intraperitoneal administration of either compound 2 (5 mg/kg) or compound 8 (2.5 mg/kg body weight) at 1, 6 and 24 hrs post glycerol dosing. In a second study, AVR-48 was injected either at 5.0 mg/kg/dose or 10 mg/kg/dose IP after 3 h of glycerol administration and was dosed 2/day for 3 days (total 7 doses) and survival was monitored till 8 days.
(§2) The mice were sacrificed, and bloods were collected by heart puncture. Serum samples were stored at −80° C. for future use. Kidney, spleens, lungs and liver were immediately fixed in 10% buffered formalin for histopathological analysis. Part of the kidney were snap frozen for RNA isolation.
(§3) RNA isolation and RT-PCR. RNA was isolated from snap-frozen kidney samples by using RNA plus micro kit (Qiagen) according to manufacturer's instruction. c-DNA were prepared by Quanta-Bio-C-DNA kit. […] The expression of various genes was analyzed in comparison to GAPDH. […]

IL-1β = test: RT-PCR of kidney tissue, glycerol-treated mice: IL-1β; type: in vivo, mouse; conditions: whole kidney tissue, RT-PCR vs GAPDH
Text: as §1, §2, §3

[1] = tested on: glycerol induced damage of kidney tissues; test: H/E staining of mouse whole kidney tissue after glycerol; type: in vivo; conditions: N=5
Text: as §1, §2

NGAL = test: RT-PCR of kidney cortical tissue, glycerol-treated mice: NGAL; type: in vivo, mouse; conditions: kidney cortical tissue (FIG. 7B); vs glycerol
Text: as §1, §2, §3

glycerol-induced AKI = test: Mouse model for acute kidney injury (glycerol-induced): serum creatinine, BUN, proteinuria; type: in vivo; conditions: for blood urea nitrogen (BUN) level in serum / serum creatinine level: glycerol IM, compound 2 (5 mg/kg) or compound 8 (2.5 mg/kg) IP at 1, 6 and 24 hrs post glycerol, vs glycerol controls
Text: Mouse model for acute kidney injury. Eight to ten weeks old male C57 BL/6J mice (n=5-7 per group, male and female) were utilized to induce acute kidney injury. Animals were randomized before treatment. Littermates or co-housed animals were chosen for this study. The mice were kept without water but unlimited access to chow for −24 hrs. In first study, nine ml per kg body weight of 1:1 diluted glycerol was intramuscularly injected followed by intraperitoneal administration of either compound 2 (5 mg/kg) or compound 8 (2.5 mg/kg body weight) at 1, 6 and 24 hrs post glycerol dosing. In a second study, AVR-48 was injected either at 5.0 mg/kg/dose or 10 mg/kg/dose IP after 3 h of glycerol administration and was dosed 2/day for 3 days (total 7 doses) and survival was monitored till 8 days. Proteinuria was measured in urine at 24 hrs before sacrifice of the animals by an albustix proteinuria strip. The mice were sacrificed, and bloods were collected by heart puncture. Serum samples were stored at −80° C. for future use. Kidney, spleens, lungs and liver were immediately fixed in 10% buffered formalin for histopathological analysis. Part of the kidney were snap frozen for RNA isolation. To evaluate the effect of AVR-48 and AVR-123 on acute kidney injury, the inventors measured the vital parameters of kidney injury, i.e., levels of creatinine and blood urea nitrogen (BUN) in the serum of animals treated with AVR-48 and AVR-123 along with glycerol treated positive controls. PBS treated animals were considered as sham. […] N=4-7 mice. *p=0.02, **p=0.00′7, and ***p=0.0004, One-way ANOVA, Dunnett's multiple comparison test. […] N=4-7 mice, each sample run in duplicates. ****p<0.0001, One-way ANOVA, Dunnett's multiple comparison test.

cyclooxygenase-2 (Cox-2) = test: RT-PCR of whole kidney tissue, glycerol-treated mice: Cox-2 mRNA; type: in vivo, mouse; conditions: vs glycerol injection
Text: as §1, §2
RNA isolation and RT-PCR. RNA was isolated from snap-frozen kidney samples by using RNA plus micro kit (Qiagen) according to manufacturer's instruction. c-DNA were prepared by Quanta-Bio-C-DNA kit. […] The expression of various genes was analyzed in comparison to GAPDH.

IL-10 = test: RT-PCR of kidney tissue, glycerol-treated mice: IL-10; type: in vivo, mouse
Text: as §1, §2
RNA isolation and RT-PCR. […] The expression of various genes was analyzed in comparison to GAPDH.
FIGS. 6A and 6B are graphs that show the level of the anti-inflammatory cytokine IL-10 in the whole kidney tissue (FIG. 6A) and in kidney cortex tissue (FIG. 6B) with or without AVR-48 treatment as determined by RT-PCR experiment. […]

[2] = tested on: mechanical ventilator induced kidney injury; test: Preterm lamb model of mechanical ventilator induced kidney injury: renal cortical histology; type: in vivo; conditions: 3.0 mg/Kg twice daily IV during mechanical ventilation, vs vehicle (saline)
Protocol: (§4) A unique PT lamb model, developed by Dr. Albertine (University of Utah), was used to emulate the clinical setting for PT human infants with respiratory failure related to premature birth before the lungs are mature enough to support extra-uterine life.
(§5) A dose range-finding study was conducted with the goal of treating 2-3 PT lambs with either a vehicle control or AVR-48 (compound 8, 3mg/kg/dose) by twice daily intravenous infusions during 6 to 7 days of mechanical ventilation, followed by transition to noninvasive respiratory support (NIS) for 3 days, for a total of 10 days of management of these PT lambs. AVR-48 was not given during the period of noninvasive respiratory support to assess short-term persistence of effect of AVR-48. Detailed methods have been published previously by Reyburn et al. and Null et al (Reyburn, Li et al. 2008, Null, Alvord et al. 2014), relevant portions incorporated herein by reference. All protocols have been adhered to APS/NIH guidelines for animal research and have been approved by the Institution Animal Care and Use Committees (IACUC) at the University of Utah.
FIGS. 11A and 11B compare renal cortical histology from the preterm lamb treated with 3.0 mg/Kg of AVR-48 (FIG. 11A) versus the vehicle-treated lamb (saline; FIG. 11B). Renal cortical histology is normal in the 3.0 mg/Kg AVR-48-treated lamb. […]

hemeoxygenase-1 (OH-1) = test: RT-PCR of kidney cortical tissue, glycerol-treated mice: hemeoxygenase-1; type: in vivo, mouse; conditions: kidney cortical tissue (FIG. 7A); vs glycerol
Text: as §1, §2, §3

[3] = tested on: glycerol induced rhabdomyolysis model; test: Survival in glycerol induced rhabdomyolysis model; type: in vivo, mouse; conditions: 10 mg/kg/dose IP from 3 h after glycerol, 2/day for 3 days; monitored till 8 days; vs glycerol+saline, p<0.05
Text: as §1
FIG. 9 is a graph showing survival curve of the mouse in a glycerol induced rhabdomyolysis model when dosed after 3 h of glycerol administration.

[4] = tested on: mechanical ventilator induced kidney injury; test: Preterm lamb model of mechanical ventilator induced kidney injury: BUN; type: in vivo; conditions: day 10, after 7 days of treatment on invasive mechanical ventilator
Protocol: as §4, §5
Fetal lamb is term lamb control. N=2-3, **p<0.01, *** student t test (2-tailed), Dunnett's multiple comparison test.

Structure (SMILES): CC(=O)N[C@@H]1C(Oc2ccc([N+](=O)[O-])cc2)OC(CO)C(O)C1O (stereo partly shown) [AVR-48]
- level of TNF-α in kidney tissue (TNF-α): significantly decreased the level
- level of IL-1β in kidney tissue (IL-1β): significantly decreased the level
- H/E staining of whole kidney tissue [1]: significant protection of kidney tissues
- level of NGAL in kidney cortical tissue (NGAL): decreased
- blood urea nitrogen (BUN) level in serum (glycerol-induced AKI): significantly reduced
- serum creatinine level (glycerol-induced AKI): significantly reduced
- total proteinuria level (glycerol-induced AKI; urine at 24 hrs, albustix proteinuria strip, vs glycerol treated mice): decreased proteinuria levels
- Cox-2 mRNA level in whole kidney tissue (cyclooxygenase-2 (Cox-2)): decreased significantly
- level of IL-10 in kidney cortex tissue (IL-10; kidney cortex tissue, RT-PCR (FIG. 6B), vs glycerol treated group): decreased the level and brought it back close to normal
- level of IL-10 in whole kidney tissue (IL-10; whole kidney tissue, RT-PCR (FIG. 6A)): significantly high
- renal cortical histology [2]: normal
- level of hemeoxygenase-1 (OH-1) in kidney cortical tissue (hemeoxygenase-1 (OH-1)): decreased the level significantly
- survival [3]: significant difference in survival
- BUN at day 10 [4]: decreased BUN

Structure (SMILES): CC(=O)NC1[C@H](Oc2ccc(C(=O)N[C@@H]3OC(COC(C)=O)[C@@H](OC(C)=O)[C@H](OC(C)=O)C3NC(C)=O)cc2)OC(CO)[C@@H](O)[C@@H]1O (stereo partly shown) [AVR-123]
- blood urea nitrogen (BUN) level in serum (glycerol-induced AKI): significantly reduced
- serum creatinine level (glycerol-induced AKI): significantly reduced
